For data set [1], the system named is SARS-CoV-2. As to the kind of experiment: Antiviral assay (viral RNA in supernatant by qRT-PCR). Type of data set: cell-based, SARS-CoV-2 (WIV-04).
For another data set, the system named is Vero-E6 cells. As to the kind of experiment: Cytotoxicity assay (CCK-8). Type of data set: cell-based. To be noted: Vero-E6 cells, 48 h, CCK-8. The procedure: (§1) Vero-E6 cells were seeded in 96-well plates (1 × 10^4 cells per well) and allowed to grow for 24 h before treatment. Then, serial 2-fold dilutions of compounds were added to the cells. At 48 h, the cells were incubated with 10 μL CCK-8 reagent (cell counting kit-8, Bimake) for 1 h at 37 °C. The absorbance at 450 nm was read by a Microplate Reader (Varioskan Flash, Thermo Fisher). Cell viability was expressed as a percentage of the treated cells to the control (untreated) cells. For each compound concentration, three wells were performed in parallel, and the mean values of the cell viability were calculated.

The subject of data set [2] is SARS-CoV-2. As to the kind of experiment: CPE-based HTS assay (CPE reduction quantified by CCK-8 cell viability). The conditions noted are these: for inhibition at 10 µM: Severe acute respiratory syndrome coronavirus 2, Vero C1008, 48 h, read-out: protection from CPE; for protection against SARS-CoV-2 infection: known inhibitors used as positive controls.
The nature of data set [3]: Cytotoxicity assay (CCK-8). The class given is cell-based. The conditions noted are these: African green monkey. The procedure:
as §1

The test system of data set [4] is SARS-CoV-2. As to the kind of experiment: Addition of sodium and potassium assay. The class given is cell-based, SARS-CoV-2 (WIV-04).
The mark [5] stands for this setting: Severe acute respiratory syndrome coronavirus 2, Vero C1008, read-out: EC50.
Where [6] appears, read: Vero-E6 cells, 48 h, CCK-8, read-out: CC50.
The mark [7] stands for this setting: primary screening, compound 10 µM, Vero-E6 cells, MOI 0.01, 48 hpi.
Where [8] appears, read: Severe acute respiratory syndrome coronavirus 2, Vero C1008.

Results on 33 compounds are retold here after paper PMC7532339, “A cell-based large-scale screening of natural compounds for inhibitors of SARS-CoV-2” (Signal Transduction and Targeted Therapy, 2020).

pEC50: −log10 of the molar value. Where two headings read alike, the source gives them in different places. A value given as a limit tells only on which side of the number the result lay.

As to `CO[C@H]1C[C@H](O[C@H]2CC[C@]3(C)[C@H]4CC[C@]5(C)[C@@H](C6=CC(=O)OC6)CC[C@]5(O)[C@@H]4CC[C@]3(O)C2)O[C@H](C)[C@H]1O[C@@H]1O[C@H](CO)[C@@H](O)[C@H](O)[C@H]1O` [Periplocoside], the pEC50 in the data set with SARS-CoV-2 [1] (read-out: EC50) is 7.18. In the data set with Vero-E6 cells, the CC50 is greater than 40 µM.
In the case of `COc1ccc2cc1Oc1ccc(cc1)C[C@H]1c3c(cc4c(c3Oc3cc5c(cc3OC)CCN(C)[C@@H]5C2)OCO4)CCN1C` [cepharanthine], in the data set on SARS-CoV-2 [2], the inhibition at 10 µM was greater than 50%.
Take IFN-α: the “protection against SARS-CoV-2 infection” value in the data set on SARS-CoV-2 [2] ([…]) is on record as “provided protection”.
`COc1ccc(C[C@@H]2c3cc(Oc4cc(C[C@@H]5c6cc(O)c(OC)cc6CCN5C)ccc4O)c(OC)cc3CCN2C)cc1` [Isoliensinine]: in the data set on SARS-CoV-2 [1] (setting [5]), the negative logarithm of the EC50 (pEC50) is 5.79. Also, the midpoint of cytotoxicity in data set [3], the CC50 at 48 h, lay at 40 µM.
Turning to `C[C@H]1COC2=C1C(=O)C(=O)c1c2ccc2c1CCCC2(C)C` [Cryptotanshinone], the inhibition at 10 µM in the data set with SARS-CoV-2 [2] is greater than 50%. Besides, the pEC50 with SARS-CoV-2 [1] (setting [5]) was 5.30. Further, the cytotoxic concentration (CC50) at 48 h in data set [3] (setting [6]) was greater than 100 µM.
With `C[C@]12CC[C@H](O)C[C@H]1CC[C@@H]1[C@@H]2CC[C@]2(C)[C@@H](c3ccc(=O)oc3)CC[C@]12O` [Bufalin], the inhibition at 10 µM in the data set with SARS-CoV-2 [2] is greater than 50%. Besides, the negative-log EC50 (pEC50) in the data set on SARS-CoV-2 [1] (setting [5]) was 7.74. Besides, the cytotoxic concentration (CC50) at 48 h in data set [3] (setting [6]) is greater than 40 µM. Besides, in the data set on SARS-CoV-2 [4], the “inhibitory effect on SARS-CoV-2 with added extracellular KCl” value is “suppressed by KCl” and the “inhibitory effect on SARS-CoV-2 with added extracellular NaCl” value is listed as “enhanced by NaCl”.
On to `CC(C)=CCc1c(O)ccc(C(=O)/C=C/c2ccc(O)cc2)c1O` [isobavachalcone], for which, in the data set with SARS-CoV-2 [2] (setting [7]), the inhibition at 10 µM was greater than 50%.
Regarding `CC(=O)O[C@H]1[C@H]2O[C@]23[C@@H]2CC[C@@H]4C[C@@H](O)CC[C@]4(C)[C@H]2CC[C@]3(C)[C@H]1c1ccc(=O)oc1` [Cinobufagin], the negative logarithm of the EC50 (pEC50) in the data set on SARS-CoV-2 [1] (setting [5]) is 7.74. For the same compound, in data set [3] (setting [6]), the cytotoxic concentration (CC50) at 48 h is greater than 40 µM.
As for `C[C@H]1O[C@@H](O[C@H]2[C@@H](O)C[C@H](O[C@H]3[C@@H](O)C[C@H](O[C@H]4CC[C@@]5(C)[C@H](CC[C@@H]6[C@@H]5C[C@@H](O)[C@]5(C)[C@@H](C7=CC(=O)OC7)CC[C@]65O)C4)O[C@@H]3C)O[C@@H]2C)C[C@H](O)[C@@H]1O` [Digoxin, reference compound], the inhibition at 10 µM in the data set with SARS-CoV-2 [2] is greater than 50%. Further, the negative logarithm of the EC50 (pEC50) with SARS-CoV-2 [1] (setting [5]) was 6.81. Besides, in data set [3] (setting [6]), the CC50 at 48 h was greater than 40 µM.
Turning to `CC(=O)O[C@H]1C[C@]2(O)[C@@H]3CC[C@@H]4C[C@@H](O)CC[C@]4(C)[C@H]3CC[C@]2(C)[C@H]1c1ccc(=O)oc1` [Bufotaline], the pEC50 with SARS-CoV-2 [1] (read-out: EC50) was 7.59. Moreover, the CC50 in the data set with Vero-E6 cells is greater than 40 µM.
With `C=C1C(=O)[C@]23[C@H](O)[C@H]1CC[C@H]2[C@@]12CO[C@]3(O)[C@@H](O)[C@@H]1C(C)(C)CC[C@@H]2O` [Oridonin], the negative logarithm of the EC50 (pEC50) with SARS-CoV-2 [1] (setting [5]) was 5.84. The CC50 at 48 h in data set [3] is greater than 40 µM.
With Brusatol, in the data set on SARS-CoV-2 [1] (read-out: EC50), the pEC50 is 7.31.
Turning to CB6: neutralizing human antibody CB6, in the data set on SARS-CoV-2 [2] ([…]), the “protection against SARS-CoV-2 infection” value is on record as “provided protection”.
`C=C1C(=O)O[C@@H]2C[C@@]3(C)CCC[C@H](C)C3=C[C@H]12` [Alantolactone]: the pEC50 in the data set with SARS-CoV-2 [1] (read-out: EC50) is 5.76. The CC50 in the data set with Vero-E6 cells turned out to be 36.7 µM.
The corresponding values for `C=C[C@H]1[C@H](O[C@@H]2O[C@H](CO)[C@@H](O)[C@H](O)[C@H]2O)OC=C(C(=O)OC)[C@H]1CCOC(=O)c1cc(O)c(O)c(O)c1` [Cornuside] are 5.28 and greater than 40 µM.
Turning to `COC(=O)[C@H]1[C@H]2C[C@@H]3c4[nH]c5cc(OC)ccc5c4CCN3C[C@H]2C[C@@H](OC(=O)c2cc(OC)c(OC)c(OC)c2)[C@@H]1OC` [reserpine, reference compound], the inhibition at 10 µM with SARS-CoV-2 [2] (setting [7]) was greater than 50%.
For `O[C@H]1[C@H]2c3cc4c(cc3CN3CCC(=C[C@@H]1O)[C@H]23)OCO4` [lycorine], the inhibition at 10 µM in the data set on SARS-CoV-2 [2] was greater than 50%.
Regarding `CC(C)=CCc1cc2c(cc1O)oc(=O)c1c3ccc(O)cc3oc21` [psoralidin], the “protection from CPE” value in the data set with SARS-CoV-2 [2] is given as greater than 50%.
As to `CC1(C)CC[C@]2(C(=O)O)CC[C@]3(C)C(=CC[C@@H]4[C@@]5(C)CC[C@H](O[C@@H]6O[C@H](C(=O)O)[C@@H](O)[C@H](O[C@@H]7OC[C@@H](O)[C@H](O)[C@H]7O)[C@H]6O)C(C)(C)[C@@H]5CC[C@]43C)[C@@H]2C1` [Momordinic], the negative logarithm of the EC50 (pEC50) in the data set with SARS-CoV-2 [1] (read-out: EC50) is 5.45. Moreover, the half-maximal cytotoxic concentration (CC50) with Vero-E6 cells is greater than 40 µM.
Regarding `COc1ccc(C(=O)O[C@H]2CC[C@@]3(C)[C@@H]4CC[C@H]5[C@]6(O)C[C@H](O)[C@@]7(O)[C@@H](CN8C[C@@H](C)CC[C@H]8[C@@]7(C)O)[C@]6(O)C[C@@]53O[C@]24O)cc1OC` [Veratridine], in the data set on SARS-CoV-2 [1] (setting [5]), the pEC50 was 5.62. Moreover, the CC50 at 48 h in data set [3] (setting [6]) is greater than 100 µM.
`COc1cc(/C=C/C=O)ccc1O` [Coniferylaldehyde] had a negative-log EC50 (pEC50) in the data set with SARS-CoV-2 [1] (setting [8]) of 4.96. In data set [3], the CC50 at 48 h was greater than 40 µM.
As for `COc1ccc2cc1Oc1ccc(cc1)C[C@H]1c3cc(c(OC)cc3CCN1C)Oc1c(OC)c(OC)cc3c1[C@H](C2)N(C)CC3` [tetrandrine], the inhibition at 10 µM in the data set on SARS-CoV-2 [2] (setting [7]) is greater than 50%.
With `CCN(CC)CCCC(C)Nc1ccnc2cc(Cl)ccc12` (centres unmarked) [chloroquine, reference compound], the pEC50 in the data set on SARS-CoV-2 [2] (Severe acute respiratory syndrome coronavirus 2, Vero C1008, Vero-E6 cells, MOI 0.01, 48 hpi, CCK-8, read-out: EC50 (inhibition of CPE)) is 5.58; in the data set on SARS-CoV-2 [1] (Severe acute respiratory syndrome coronavirus 2, Vero C1008, 48 h, read-out: EC50 determined by viral RNA copies), 5.75. Also, in the data set on SARS-CoV-2 [2] (Vero-E6 cells, MOI 0.01, 48 h), the “protection against SARS-CoV-2 infection” value is “provided protection”.
With `Cc1coc2c1C(=O)C(=O)c1c-2ccc2c1CCCC2(C)C` [tanshinone IIA], the inhibition at 10 µM in the data set with SARS-CoV-2 [2] (setting [7]) is greater than 50%.
As to `COc1cc2c(cc1OC)[C@@H](Cc1ccc(O)c(Oc3cc4c(cc3OC)CCN(C)[C@@H]4Cc3ccc(O)cc3)c1)N(C)CC2` [Liensinine], the pEC50 in the data set with SARS-CoV-2 [1] (read-out: EC50) is 5.60. For the same compound, the 50% cytotoxic concentration (CC50) in the data set on Vero-E6 cells turned out to be 25.4 µM.
Consider `COc1ccc2cc1Oc1ccc(cc1)C[C@H]1c3cc(c(OC)cc3CCN1C)Oc1c(O)c(OC)cc3c1[C@H](C2)N(C)CC3` [fangchinoline], for which the inhibition at 10 µM with SARS-CoV-2 [2] was greater than 50%.
As for `CC(C)=CCc1cc2c(cc1O)O[C@H](c1ccc(O)cc1)CC2=O` [bavachin], the inhibition at 10 µM in the data set with SARS-CoV-2 [2] (setting [7]) is greater than 50%.
`CCC(CC)COC(=O)[C@H](C)N[P@](=O)(OC[C@H]1O[C@@](C#N)(c2ccc3c(N)ncnn23)[C@H](O)[C@@H]1O)Oc1ccccc1` [remdesivir, reference compound]: the “protection against SARS-CoV-2 infection” value in the data set with SARS-CoV-2 [2] (Vero-E6 cells, MOI 0.01, 48 h) is given as “provided protection”.
The compound `COC(=O)[C@@]12OC[C@]34[C@H]([C@@H](O)[C@@H]1O)[C@@]1(C)CC(=O)C(O)=C(C)[C@@H]1C[C@H]3OC(=O)[C@H](OC(=O)CC(C)C)[C@@H]24` [Bruceine A] gave a negative logarithm of the EC50 (pEC50) in the data set on SARS-CoV-2 [1] (setting [8]) of 7.96. For the same compound, the CC50 at 48 h in data set [3] turned out to be 31.4 µM.
In the case of `C=C1C(=O)O[C@@H]2C[C@@]3(C)CCCC(=C)[C@@H]3C[C@H]12` [Isoalantolactone], the pEC50 with SARS-CoV-2 [1] (setting [5]) is 5.83. In addition, in data set [3] (setting [6]), the cytotoxic concentration (CC50) at 48 h was greater than 40 µM.
Take `C/C=C/c1cc(OC)c2c(c1)C(C)C(c1ccc(O)c(OC)c1)O2` (centres unmarked) [Dehydrodiisoeugenol]: in the data set with SARS-CoV-2 [1] (read-out: EC50), the pEC50 is 4.99. The same compound displayed a CC50 in the data set on Vero-E6 cells greater than 100 µM.
Regarding `C=C(C)[C@@H]1CC[C@]2(C)[C@H](CC=C3[C@@H]4[C@@H](C)[C@H](C)CC[C@]4(C)CC[C@]32C)[C@@]1(C)CCC(=O)O` [Roburicacid], in the data set on SARS-CoV-2 [1] (read-out: EC50), the pEC50 was 5.28. This compound also came in with a 50% cytotoxic concentration (CC50) in the data set with Vero-E6 cells greater than 40 µM.
With `C=C1CC[C@H]2C(=C)CC[C@H]3C(=C)C(=O)O[C@@H]3[C@@H]12` [Dehydrocostus lactone], in the data set with SARS-CoV-2 [1] (setting [5]), the negative logarithm of the EC50 (pEC50) is 5.63. Also, in data set [3], the 50% cytotoxic concentration (CC50) at 48 h was determined as 36.2 µM.
